Laboratory results published in patent publication US20100115832A1, “MOISTURIZING AGENT WITH NUTRIENTS” (priority 2006, published 2010).

Settings: research at the DRiWATER lab

effect on gel degradation in soil: will slow gel degradation in soil
SMILES: CC(=O)O [acetic acid]
